The nature of the data set: Stability in human liver microsomes (NADPH-dependent). It counts as in vitro ADME. As for the experimental part:
The compounds were incubated in duplicate with human liver microsomes at 37° C. The reaction contained microsomal protein in 100 mM potassium phosphate, 2 mM NADPH, 3 mM MgCl2, pH 7.4. A control was run for each compound omitting NADPH to detect NADPH-independent degradation. An aliquot was removed from each experimental and control reaction at 0, 10, 20, 30, and 60 minutes and mixed with an equal volume of ice-cold Stop Solution (0.3% acetic acid in acetonitrile containing haloperidol, diclofenac, or other internal standard). Stopped reactions were incubated for at least ten minutes at −20° C., and an additional volume of water was added. The samples were centrifuged to remove precipitated protein, and the supernatants were analyzed by LCMS/MS to quantitate the remaining compound. Data were converted to percent remaining by dividing by the time zero concentration value. Data were fit to a first-order decay model to determine half-life. Intrinsic clearance was calculated from the half-life and the protein concentrations: CLint=ln(2)/(t½[microsomal protein]). […] More surprising is that eliminating the ring nitrogen in SX-517 yielded a half-life even larger than that of SX-682. The results as a whole led to no SAR predictive of the surprising stability of SX-682.

These results are taken from patent publication US10561676B2, “Method for treating cancer using dual antagonists of CXCR1 and CXCR2” (Syntrix Biosystems, Inc., priority 2018, dated 2020).

In the case of `O=C(Nc1ccc(F)cc1)c1cnc(SCc2cc(OC(F)(F)F)ccc2B(O)O)nc1` [SX-682, 2-(2-boronic acid-5-trifluoromethoxy-benzylsulfanyl)-pyrimidine-5-carboxylic acid (4-fluoro-phenyl)-amide], the “microsomal half-life larger than SX-671 or SX-576” value stood at 6 fold. Besides, where the note is “pH 7.4, 37° C., NADPH-dependent, read-out: CLint, microsomal intrinsic clearance”, the microsomal CLint amounted to 2.1 µL/min/mg.
